# Experimental data taken from patent US7531320B2, “Modulation of β-catenin/TCF-activated transcription” (priority 2003, dated 2009).
# Tests used:
# CBP = target: T1, CBP (Homo sapiens, UniProt Q92793); assay: COMPOUND 2 streptavidin-agarose affinity pull-down from SW480 nuclear extracts; assay type: binding; conditions: SW480 nuclear extracts, 20 μM preincubation
# T1 construct: endogenous in cells; host or cells: SW480 nuclear extract
# Protocol: FIG. 1. COMPOUND 1 inhibits β-catenin/TCF transcription. • A(i) and A(ii). Structures of COMPOUND 1, COMPOUND 2, COMPOUND 3, COMPOUND 4, and COMPOUND 5. • B(i) and B(ii). […] SW480 cells (10^5), (FIG. 1B(i)), were transfected with β-catenin/TCF luciferase construct. Cells were treated with COMPOUND 1 (1-64 μM). 24 hours post treatment lysates were prepared and subjected to dual luciferase assay. The data is represented in different form in FIG. 1B(ii). • C. COMPOUND 1 has no effect on NFAT reporter construct. Stably transfected Jurkat cells, right panel, with an NFAT reporter construct, were stimulated with PMA (10 ng/ml)/lonomycin (1 μg/ml), and treated with COMPOUND 1 (0.781-50 μM). 24 hours post treatment lysates were prepared and subjected to dual luciferase assay. All experiments were performed in duplicate and the values plotted as means +/−standard deviation. • D. CBP is the molecular target of COMPOUND 1. Nuclear extracts of SW480 cells were incubated with streptavidin-agarose beads coated with COMPOUND 2 (25 μM). Beads were washed 3 times and the eluted were subjected to gel electrophoresis and immunoblotting, with anti-CBP antibodies. […] The lysates were desalted using G-25 1 cc columns (Pharmacia) to remove the unbound ^14C-labeled-COMPOUND 1, and ^14C-labeled-COMPOUND 1 incorporation was measured. […]
# [1] = test system: caspase-3/7 in CCD18Co cells; assay: Caspase-3/7 activity assay, normal colonocytes CCD18Co; assay type: cell-based, human; conditions: 25 μM, 24 hours
# Protocol: FIG. 6. • A. COMPOUND 1 arrests cells in G1. FACS analysis was performed on SW480 (lower panel) and HCT116 (upper panel) cells treated for 24 hours with either COMPOUND 1 (25 μM) (right) or control (0.5% DMSO (left). 5.5×10^6 cells were fixed and stained with propidium iodide (PI). G0/G1, S, and G2/M are indicated by arrows. • B. COMPOUND 1 selectively activates caspases in colon carcinoma cell lines. SW480 and HCT116 (left graph) cells (10^5) along with the normal colonocytes, CCD18Co (right graph) were treated with either control (0.5% DMSO) or COMPOUND 1 (25 μM). 24 hours post treatment, cells were lysed and the caspase-3/7 enzymatic activities were measured. Relative fluorescence units (RFU) were calculated by subtracting the unit values of the blank (control, without cells) from the treated samples (COMPOUND 1 or control) and plotted.
# SW480, HCT116, and CCD18Co cells were plated at 10^5 cells per well (96-well plates) for 24 hours prior to treatment. 25 μM of COMPOUND 1 or control (0.5% DMSO) was added to each well. 24 hours post treatment, cells were lysed and caspase activity was measured using a caspase-3/7 activity kit (Apo-One Homogeneous caspase-3/7 assay, #G77905, Promega). Relative fluorescence units (RFU) were obtained by subtracting the unit values of the blank (control, without cells) from the experimental measured values. […]
# [2] = test system: nuclear β-catenin in HCT116 cells; assay: β-catenin immunofluorescence localization in HCT116 cells; assay type: cell-based, human; conditions: 25 μM, 24 hours, to cytoplasmic membrane
# Protocol: FIG. 4. COMPOUND 1 decreases nuclear β-catenin • A. β-catenin immunofluorescence microscopy. Log phase SW480 (left) and HCT116 (right) cells were fixed and stained with either anti-β-catenin red (upper panel, A) or anti-CBP (upper panel, B) green. The center panel represents the superimposed β-catenin and CBP in SW480 (left) and HCT116 (right) cells. […] 25 μg of total protein from the cell extracts of SW480 cells with or without 24 hr treatment of COMPOUND1 was used for detection of cytosolic and nuclear β-catenin.
# Immunofluorescence was used to examine the localization of CBP and β-catenin in SW480 and HCT116 cells treated with COMPOUND 1 (25 μM) or control (0.5% DMSO). Cells at log phase were seeded and after 24 hours, the cells were treated with COMPOUND 1 or control. 24 hours post treatment, cells were fixed. The coverslips were incubated with antibodies raised against CBP (A-22) (Santa Cruz Biotechnology) and β-catenin (Transduction Laboratories), respectively. The slides were examined using a Nikon PCM 2000 Laser Scanning Confocal Microscope after the secondary antibodies conjugated to either FITC or TRITC (Jackson ImmunoResearch, Westgrove, Pa.) were applied.
# T1 sequence (Q92793 whole entry): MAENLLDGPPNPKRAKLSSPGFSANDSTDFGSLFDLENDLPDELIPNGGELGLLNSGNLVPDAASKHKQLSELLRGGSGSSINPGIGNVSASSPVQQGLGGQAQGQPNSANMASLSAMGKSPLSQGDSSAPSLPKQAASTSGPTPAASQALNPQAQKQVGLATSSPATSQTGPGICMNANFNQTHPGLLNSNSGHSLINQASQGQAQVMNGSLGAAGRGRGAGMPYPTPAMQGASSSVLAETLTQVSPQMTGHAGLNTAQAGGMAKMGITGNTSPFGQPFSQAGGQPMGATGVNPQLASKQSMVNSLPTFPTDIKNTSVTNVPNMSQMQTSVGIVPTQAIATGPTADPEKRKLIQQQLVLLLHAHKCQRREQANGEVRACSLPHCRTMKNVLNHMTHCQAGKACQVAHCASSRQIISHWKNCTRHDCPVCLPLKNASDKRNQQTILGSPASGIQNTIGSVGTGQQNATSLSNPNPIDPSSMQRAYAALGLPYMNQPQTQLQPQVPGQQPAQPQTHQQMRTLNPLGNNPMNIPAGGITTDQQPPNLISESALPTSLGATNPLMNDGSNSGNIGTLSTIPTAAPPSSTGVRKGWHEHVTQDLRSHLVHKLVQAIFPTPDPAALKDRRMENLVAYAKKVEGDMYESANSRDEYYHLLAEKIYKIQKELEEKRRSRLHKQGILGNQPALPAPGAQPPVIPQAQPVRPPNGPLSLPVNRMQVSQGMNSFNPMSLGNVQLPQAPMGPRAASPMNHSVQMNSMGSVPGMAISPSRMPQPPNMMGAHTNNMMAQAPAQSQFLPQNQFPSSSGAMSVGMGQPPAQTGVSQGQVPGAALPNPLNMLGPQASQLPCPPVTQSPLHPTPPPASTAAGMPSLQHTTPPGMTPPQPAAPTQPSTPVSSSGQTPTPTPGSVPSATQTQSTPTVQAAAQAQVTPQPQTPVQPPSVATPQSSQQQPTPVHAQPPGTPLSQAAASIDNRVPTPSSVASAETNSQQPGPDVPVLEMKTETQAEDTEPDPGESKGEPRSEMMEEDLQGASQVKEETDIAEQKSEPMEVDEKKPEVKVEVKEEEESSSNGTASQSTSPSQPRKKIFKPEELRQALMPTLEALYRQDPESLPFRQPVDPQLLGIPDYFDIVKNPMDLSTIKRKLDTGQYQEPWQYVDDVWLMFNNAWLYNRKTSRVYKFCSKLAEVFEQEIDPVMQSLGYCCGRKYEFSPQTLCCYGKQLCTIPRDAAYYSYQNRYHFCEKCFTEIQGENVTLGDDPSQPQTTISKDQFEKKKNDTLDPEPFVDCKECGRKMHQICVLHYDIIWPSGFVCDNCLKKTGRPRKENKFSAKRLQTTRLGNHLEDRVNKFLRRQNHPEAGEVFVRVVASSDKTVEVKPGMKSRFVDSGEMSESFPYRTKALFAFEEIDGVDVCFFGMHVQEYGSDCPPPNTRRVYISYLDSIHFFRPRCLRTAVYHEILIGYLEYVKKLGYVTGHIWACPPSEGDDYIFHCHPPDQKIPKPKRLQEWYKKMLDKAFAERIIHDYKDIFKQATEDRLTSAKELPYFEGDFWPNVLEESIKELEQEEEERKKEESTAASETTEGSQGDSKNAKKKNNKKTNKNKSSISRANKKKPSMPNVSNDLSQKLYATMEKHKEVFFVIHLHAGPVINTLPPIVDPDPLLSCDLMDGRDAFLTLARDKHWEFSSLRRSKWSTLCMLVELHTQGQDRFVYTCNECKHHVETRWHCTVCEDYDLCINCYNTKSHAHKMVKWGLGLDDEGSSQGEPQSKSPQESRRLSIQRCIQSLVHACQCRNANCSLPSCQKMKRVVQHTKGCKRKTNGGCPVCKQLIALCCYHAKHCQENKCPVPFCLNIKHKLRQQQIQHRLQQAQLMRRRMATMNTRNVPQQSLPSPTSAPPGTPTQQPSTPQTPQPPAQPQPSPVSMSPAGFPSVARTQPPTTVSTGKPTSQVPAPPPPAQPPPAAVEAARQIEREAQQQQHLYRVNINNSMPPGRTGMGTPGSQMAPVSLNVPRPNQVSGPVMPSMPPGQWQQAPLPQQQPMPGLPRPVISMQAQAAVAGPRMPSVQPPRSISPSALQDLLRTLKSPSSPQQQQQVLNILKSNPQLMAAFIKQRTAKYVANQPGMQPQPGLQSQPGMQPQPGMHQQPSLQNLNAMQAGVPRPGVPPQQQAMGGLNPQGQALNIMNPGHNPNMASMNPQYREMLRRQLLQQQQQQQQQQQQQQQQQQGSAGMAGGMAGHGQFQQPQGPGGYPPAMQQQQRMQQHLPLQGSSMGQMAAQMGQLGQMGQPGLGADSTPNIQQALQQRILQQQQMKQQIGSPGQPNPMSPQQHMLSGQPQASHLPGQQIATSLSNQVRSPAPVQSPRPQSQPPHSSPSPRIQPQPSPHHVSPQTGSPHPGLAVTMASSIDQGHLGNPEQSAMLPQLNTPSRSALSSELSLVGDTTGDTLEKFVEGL
smiles,measurement,setting,value
O=C1C(Cc2ccc(O)cc2)N2C(=O)CCN(C(=O)NCc3ccccc3)C2CN1Cc1cccc2ccccc12 (stereo not drawn) [COMPOUND 1],Effect of preincubation with COMPOUND 1 on CBP binding to COMPOUND 2,CBP,blocked the binding of CBP
same,Caspase activation,[1],not in normal colonocytes
same,Subcellular distribution of β-catenin,[2],redistribution of β-catenin
